For orientation: Emax means the maximal effect, on the per cent scale that the assay sets. The IC50 is the concentration that gives 50% inhibition. As usually defined, the EC50 is the concentration needed to bring the measured effect to its halfway point. In general, Kp refers to tissue or fluid exposure divided by exposure in the circulation. By fraction unbound is commonly meant the share of the substance not bound to proteins or other matrix. Lower therefore signals extensive binding.

The target in data set [1] is Metabotropic glutamate receptor 5 (Rattus norvegicus) (UniProt P31424). Briefly: Positive allosteric modulation of rat mGlu5 receptor expressed in HEK293A cells assessed as increase in glutamate induced-calcium mobilization by measuring maximum glutamate response preincubated for 2.3 mins followed by glutamate addition measured for 1.9 mins by Fluo-4 AM dye based fluorescence assay relative to glutamate. Type of data set: functional, cell-based. In general terms: Calcium assays in cells follow changes in intracellular calcium, usually with a dye or a luminescent sensor.

Data set [2] deals with Metabotropic glutamate receptor 3 (Rattus norvegicus, UniProt P31422). Briefly: Negative allosteric modulation of rat mGlu3 receptor expressed in TREX cells coexpressing Galpha15 assessed as inhibition of glutamate induced-calcium mobilization preincubated for 2.3 mins followed by glutamate addition measured for 2.6 mins by Fluo-4 AM dye based fluorescence assay. In kind it is functional, cell-based.

Data set [3] addresses Metabotropic glutamate receptor 3 (Rattus norvegicus) (UniProt P31422). The data set is described as follows: Negative allosteric modulation of rat mGlu3 receptor expressed in TREX cells coexpressing Galpha15 assessed as inhibition of glutamate induced-calcium mobilization by measuring minimum glutamate response preincubated for 2.3 mins followed by glutamate addition measured for 2.6 mins by Fluo-4 AM dye based fluorescence assay relative to glutamate. Type of data set: functional, cell-based.

Data set [4] addresses Metabotropic glutamate receptor 5 (Rattus norvegicus, UniProt P31424). The data set is described as follows: Positive allosteric modulation of rat mGlu5 receptor expressed in HEK293A cells assessed as increase in glutamate induced-calcium mobilization preincubated for 2.3 mins followed by glutamate addition measured for 1.9 mins by Fluo-4 AM dye based fluorescence assay. In kind it is functional, cell-based.

Data set [5] addresses Cytochrome P450 2C9 (Homo sapiens, UniProt P11712). Briefly: Inhibition of CYP2C9 in human liver microsomes using diclofenac as substrate after 15 mins in presence of NADPH by LC/MS/MS analysis. In kind it is ADME.
The nature of data set [6]: Brain to plasma partition coefficient, Kp of the compound in rat. In kind it is ADME.
A short description of data set [7]: Unbound brain-to-plasma concentration ratio in rat. In kind it is ADME. The settings on record: read-out: K(p,uu,brain).
The target in data set [8] is Cytochrome P450 1A2 (Homo sapiens, UniProt P05177). Briefly: Inhibition of CYP1A2 in human liver microsomes using phenacetin as substrate after 15 mins in presence of NADPH by LC/MS/MS analysis. Type of data set: ADME. For orientation: Microsomes from liver hold many membrane-bound enzymes, among them those of drug oxidation.
Data set [9] deals with Cytochrome P450 3A4 (Homo sapiens, UniProt P08684). The data set is described as follows: Inhibition of CYP3A4 in human liver microsomes using midazolam as substrate after 15 mins in presence of NADPH by LC/MS/MS analysis. Type of data set: ADME.
Data set [10] can be described thus: Fraction unbound in rat brain homogenate at 5 uM after 6 hrs by equilibrium dialysis based LC/MS/MS analysis. Type of data set: ADME, tissue-based. (In general: Equilibrium dialysis compares concentrations on both sides of a semipermeable membrane.)
Data set [11] can be described thus: Fraction unbound in human plasma at 5 uM after 4 hrs by equilibrium dialysis based LC/MS/MS analysis. Type of data set: ADME, cell-free.
Data set [12] concerns the target Cytochrome P450 2D6 (Homo sapiens, UniProt P10635). Briefly: Inhibition of CYP2D6 in human liver microsomes using dextromethorphan as substrate after 15 mins in presence of NADPH by LC/MS/MS analysis. Type of data set: ADME.
Data set [13] in a line: Fraction unbound in rat plasma at 5 uM after 4 hrs by equilibrium dialysis based LC/MS/MS analysis. In kind it is ADME, cell-free.
For data set [14], the system named is Mus musculus. The data set is described as follows: Antidepressant activity in CD-1 mouse assessed as reduction in immobility time up to 30 mg/kg administered ip 15 mins prior to test measured for 6 mins by tail suspension test. In kind it is functional, organism-based.
Data set [15] is described as follows: Drug uptake in Harlan CD-1 mouse brain at 3 mg/kg, ip by LC/MS-MS analysis. In kind it is ADME, organism-based. The settings on record: in vivo, read-out: Drug uptake.
Data set [16] can be described thus: Ratio of drug uptake in Harlan CD-1 mouse brain at 3 mg/kg, ip to IC50 for negative allosteric modulation of rat mGlu2 receptor expressed in HEK293 cells coexpressing Galpha15. The following applies: in vivo. Type of data set: ADME, organism-based.
For data set [17], the target named is Metabotropic glutamate receptor 2 (Rattus norvegicus, UniProt P31421). The data set is described as follows: Negative allosteric modulation of rat mGlu2 receptor expressed in HEK293 cells coexpressing Galpha15 assessed as inhibition of glutamate induced-calcium mobilization preincubated for 2.3 mins followed by glutamate addition measured for 1.9 mins by Fluo-4 AM dye based fluorescence assay. Type of data set: functional, cell-based.

Data set [18] is filed under the species Rattus norvegicus. Briefly: Selectivity ratio of EC50 for positive allosteric modulation of rat mGlu5 receptor expressed in HEK293A cells to IC50 for negative allosteric modulation of rat mGlu3 receptor expressed in TREX cells coexpressing Galpha15. In kind it is cell-based.
Data set [19] relates to Mus musculus. The data set is described as follows: Antidepressant activity in CD-1 mouse assessed as reduction in immobility time at 30 mg/kg administered ip 15 mins prior to test measured for 6 mins by tail suspension test. In kind it is functional, organism-based.

The source made the active and inactive calls. The rule behind the calls is not given here.

Metabotropic glutamate receptor 5 (Rattus norvegicus), sequence (P31424 21-1203 limits assumed): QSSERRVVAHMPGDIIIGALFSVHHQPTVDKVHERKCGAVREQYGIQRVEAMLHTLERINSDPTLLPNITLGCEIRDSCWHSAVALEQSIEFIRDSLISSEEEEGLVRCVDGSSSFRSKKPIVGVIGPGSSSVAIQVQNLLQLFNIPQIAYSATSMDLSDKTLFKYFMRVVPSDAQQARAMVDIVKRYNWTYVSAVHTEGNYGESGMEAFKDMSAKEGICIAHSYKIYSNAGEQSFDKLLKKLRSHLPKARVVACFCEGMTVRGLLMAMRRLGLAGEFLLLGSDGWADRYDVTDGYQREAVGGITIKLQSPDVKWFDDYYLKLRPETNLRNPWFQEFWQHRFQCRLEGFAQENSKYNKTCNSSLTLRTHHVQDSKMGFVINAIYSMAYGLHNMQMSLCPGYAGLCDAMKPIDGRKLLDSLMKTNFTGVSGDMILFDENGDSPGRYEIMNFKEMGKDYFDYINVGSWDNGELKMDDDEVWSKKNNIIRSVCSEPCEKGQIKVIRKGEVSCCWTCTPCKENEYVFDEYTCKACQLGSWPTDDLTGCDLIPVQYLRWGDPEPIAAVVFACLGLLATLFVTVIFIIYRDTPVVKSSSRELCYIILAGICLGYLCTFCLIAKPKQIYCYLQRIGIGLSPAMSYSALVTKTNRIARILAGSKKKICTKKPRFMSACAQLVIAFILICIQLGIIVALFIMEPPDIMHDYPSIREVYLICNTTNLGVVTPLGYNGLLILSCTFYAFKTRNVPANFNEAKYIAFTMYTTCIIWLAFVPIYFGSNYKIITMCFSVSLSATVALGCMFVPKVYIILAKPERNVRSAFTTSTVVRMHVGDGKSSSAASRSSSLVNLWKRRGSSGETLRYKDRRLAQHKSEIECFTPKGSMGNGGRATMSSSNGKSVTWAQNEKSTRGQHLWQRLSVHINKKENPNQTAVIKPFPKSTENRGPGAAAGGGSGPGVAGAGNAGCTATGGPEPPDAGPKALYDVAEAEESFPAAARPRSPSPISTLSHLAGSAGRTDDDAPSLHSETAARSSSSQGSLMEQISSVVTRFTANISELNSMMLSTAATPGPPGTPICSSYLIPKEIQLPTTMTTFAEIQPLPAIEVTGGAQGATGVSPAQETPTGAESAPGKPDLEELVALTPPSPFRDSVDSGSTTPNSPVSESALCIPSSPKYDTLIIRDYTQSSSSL
Metabotropic glutamate receptor 3 (Rattus norvegicus), sequence (P31422 23-879 limits assumed): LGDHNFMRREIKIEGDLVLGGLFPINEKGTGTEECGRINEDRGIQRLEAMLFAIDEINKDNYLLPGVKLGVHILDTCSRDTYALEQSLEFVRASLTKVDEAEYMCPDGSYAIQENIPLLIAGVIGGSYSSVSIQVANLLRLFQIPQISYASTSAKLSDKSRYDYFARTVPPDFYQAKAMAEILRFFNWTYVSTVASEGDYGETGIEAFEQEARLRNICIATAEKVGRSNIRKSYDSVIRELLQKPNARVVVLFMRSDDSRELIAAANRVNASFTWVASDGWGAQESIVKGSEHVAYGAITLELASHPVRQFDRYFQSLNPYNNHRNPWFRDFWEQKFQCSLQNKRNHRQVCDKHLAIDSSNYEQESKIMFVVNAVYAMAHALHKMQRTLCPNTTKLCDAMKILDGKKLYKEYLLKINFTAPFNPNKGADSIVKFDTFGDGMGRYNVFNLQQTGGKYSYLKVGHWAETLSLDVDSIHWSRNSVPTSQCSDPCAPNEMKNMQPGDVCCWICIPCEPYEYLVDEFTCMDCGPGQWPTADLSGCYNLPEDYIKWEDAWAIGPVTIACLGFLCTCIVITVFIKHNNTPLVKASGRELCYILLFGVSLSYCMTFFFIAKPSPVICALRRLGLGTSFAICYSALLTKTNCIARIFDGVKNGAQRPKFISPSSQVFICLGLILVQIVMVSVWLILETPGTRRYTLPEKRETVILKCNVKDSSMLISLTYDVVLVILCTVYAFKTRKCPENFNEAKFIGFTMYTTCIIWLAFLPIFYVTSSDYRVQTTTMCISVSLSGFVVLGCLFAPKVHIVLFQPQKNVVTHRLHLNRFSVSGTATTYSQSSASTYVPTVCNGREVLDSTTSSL
Metabotropic glutamate receptor 5, sequence (P31424 whole entry): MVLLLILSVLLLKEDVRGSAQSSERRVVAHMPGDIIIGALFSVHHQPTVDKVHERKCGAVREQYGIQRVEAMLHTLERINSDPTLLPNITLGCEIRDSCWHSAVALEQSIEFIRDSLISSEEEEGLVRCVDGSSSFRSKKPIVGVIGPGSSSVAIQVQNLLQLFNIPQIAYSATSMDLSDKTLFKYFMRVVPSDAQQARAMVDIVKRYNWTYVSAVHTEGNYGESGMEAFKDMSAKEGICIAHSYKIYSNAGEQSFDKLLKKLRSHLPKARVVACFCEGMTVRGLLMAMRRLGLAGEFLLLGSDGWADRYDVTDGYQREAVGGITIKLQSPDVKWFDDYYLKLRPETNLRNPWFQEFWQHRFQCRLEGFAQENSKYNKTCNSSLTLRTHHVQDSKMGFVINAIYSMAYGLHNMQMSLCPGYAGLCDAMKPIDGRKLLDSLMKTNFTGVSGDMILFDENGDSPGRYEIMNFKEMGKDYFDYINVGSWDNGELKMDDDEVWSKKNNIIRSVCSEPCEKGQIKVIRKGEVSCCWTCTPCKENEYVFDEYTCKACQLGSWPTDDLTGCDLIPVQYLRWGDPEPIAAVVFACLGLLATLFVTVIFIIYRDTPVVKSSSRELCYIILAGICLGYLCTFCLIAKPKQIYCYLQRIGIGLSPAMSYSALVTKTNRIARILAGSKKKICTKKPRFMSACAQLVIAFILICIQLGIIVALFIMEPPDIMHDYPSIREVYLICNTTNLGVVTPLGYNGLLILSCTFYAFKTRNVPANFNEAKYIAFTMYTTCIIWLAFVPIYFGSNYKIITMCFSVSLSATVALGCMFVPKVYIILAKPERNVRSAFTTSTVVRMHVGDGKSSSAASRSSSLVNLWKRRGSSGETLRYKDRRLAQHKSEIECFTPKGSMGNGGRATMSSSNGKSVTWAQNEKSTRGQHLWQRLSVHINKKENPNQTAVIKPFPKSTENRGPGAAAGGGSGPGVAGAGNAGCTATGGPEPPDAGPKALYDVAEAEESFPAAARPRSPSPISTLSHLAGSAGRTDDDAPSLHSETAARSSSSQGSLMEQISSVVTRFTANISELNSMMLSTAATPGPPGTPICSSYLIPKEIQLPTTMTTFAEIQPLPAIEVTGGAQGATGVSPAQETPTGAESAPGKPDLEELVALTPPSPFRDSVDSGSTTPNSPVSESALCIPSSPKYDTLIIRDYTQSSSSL
Metabotropic glutamate receptor 3, sequence (P31422 whole entry): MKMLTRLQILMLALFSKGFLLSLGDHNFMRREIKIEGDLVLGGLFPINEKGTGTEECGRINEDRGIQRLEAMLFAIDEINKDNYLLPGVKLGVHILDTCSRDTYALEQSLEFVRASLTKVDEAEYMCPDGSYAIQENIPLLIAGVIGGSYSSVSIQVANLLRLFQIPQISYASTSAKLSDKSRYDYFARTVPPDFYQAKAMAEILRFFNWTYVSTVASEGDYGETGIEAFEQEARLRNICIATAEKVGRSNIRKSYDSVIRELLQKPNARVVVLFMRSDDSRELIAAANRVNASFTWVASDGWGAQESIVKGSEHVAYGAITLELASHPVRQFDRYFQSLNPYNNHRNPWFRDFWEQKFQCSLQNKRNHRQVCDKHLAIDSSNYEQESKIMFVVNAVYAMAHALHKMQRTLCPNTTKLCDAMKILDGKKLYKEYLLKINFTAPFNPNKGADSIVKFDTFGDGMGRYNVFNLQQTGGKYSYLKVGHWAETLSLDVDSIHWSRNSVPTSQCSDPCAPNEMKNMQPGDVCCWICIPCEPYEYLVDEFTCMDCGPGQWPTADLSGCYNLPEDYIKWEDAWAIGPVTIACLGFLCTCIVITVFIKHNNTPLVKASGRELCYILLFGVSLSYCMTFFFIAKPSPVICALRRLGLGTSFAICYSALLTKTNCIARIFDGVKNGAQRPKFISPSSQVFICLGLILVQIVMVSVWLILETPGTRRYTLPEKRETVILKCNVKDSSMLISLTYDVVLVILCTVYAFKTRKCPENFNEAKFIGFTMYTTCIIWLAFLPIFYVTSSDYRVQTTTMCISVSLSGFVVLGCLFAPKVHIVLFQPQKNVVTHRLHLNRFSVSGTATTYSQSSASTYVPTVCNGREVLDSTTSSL
Metabotropic glutamate receptor 2, sequence (P31421 whole entry, looked up): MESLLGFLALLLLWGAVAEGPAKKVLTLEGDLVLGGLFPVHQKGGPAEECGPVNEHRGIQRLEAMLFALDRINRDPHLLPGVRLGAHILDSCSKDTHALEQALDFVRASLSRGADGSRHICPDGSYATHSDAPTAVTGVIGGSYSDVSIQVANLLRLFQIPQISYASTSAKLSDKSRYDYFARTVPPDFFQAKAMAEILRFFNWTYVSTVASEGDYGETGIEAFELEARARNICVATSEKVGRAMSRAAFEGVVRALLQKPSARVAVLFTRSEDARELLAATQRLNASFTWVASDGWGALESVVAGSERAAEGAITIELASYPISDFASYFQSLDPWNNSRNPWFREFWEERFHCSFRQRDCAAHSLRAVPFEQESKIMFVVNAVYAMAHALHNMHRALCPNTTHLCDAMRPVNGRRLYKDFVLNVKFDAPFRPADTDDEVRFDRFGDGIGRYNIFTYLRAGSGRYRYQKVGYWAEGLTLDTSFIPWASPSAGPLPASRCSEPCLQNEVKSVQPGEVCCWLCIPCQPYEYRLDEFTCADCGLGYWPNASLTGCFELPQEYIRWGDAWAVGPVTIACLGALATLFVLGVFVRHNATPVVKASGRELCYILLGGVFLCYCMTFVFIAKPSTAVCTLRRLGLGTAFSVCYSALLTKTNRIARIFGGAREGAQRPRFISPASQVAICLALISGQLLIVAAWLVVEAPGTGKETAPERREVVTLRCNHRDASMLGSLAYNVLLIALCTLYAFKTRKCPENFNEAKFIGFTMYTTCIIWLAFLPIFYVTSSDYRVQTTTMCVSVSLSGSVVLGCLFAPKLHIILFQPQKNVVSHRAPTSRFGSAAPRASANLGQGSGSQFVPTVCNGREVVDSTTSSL

With `O=c1nc(OCCOc2ccccc2)ccn1-c1cccc(F)c1`, the Emax in data set [1] turned out to be 77%. In addition, in data set [2], the IC50 is > 10000 nM. The Emin in [3] was determined as 15.5%.

On to `O=c1cc(OCCOc2cccc(F)c2)ccn1-c1ccc(F)cc1`, for which, in data set [1], the Emax is 93%. Besides, the IC50 in data set [2] amounted to 350 nM. Further, the Emin in data set [3] came out at 3.56%. Moreover, in data set [4], the EC50 was 1500 nM.

`CC(COc1ccn(-c2ccc(F)cc2)c(=O)c1)Oc1ccccc1` (stereo not drawn): the IC50 is > 30000 nM in [5]; 1230 nM in data set [2]; > 30000 nM in [8]; > 30000 nM in data set [9]; > 30000 nM in [12]. Further, the Kp in data set [6] was determined as 1.7. Further, the Kp uu in [7] turned out to be 1.3. Further, in [10], the fraction unbound at 6 h, 5 µM was 0.05. Moreover, the fraction unbound at 4 h, 5 µM in data set [11] came to 0.1; in data set [13], 0.04. The Emin in [3] amounted to 3.57%. For the same compound, the EC50 in data set [4] is > 30000 nM.

With `Cn1ccc(COc2cnc(C(N)=O)cc2-c2ccc(F)cc2)n1`, in data set [14], the result was inactive. Besides, the concentration in data set [15] worked out at 14 µM. Besides, the Ratio in [16] turned out to be 180.

For `N#Cc1cc(F)cc(-n2ccc(OCCOc3ccccc3)cc2=O)c1`, in data set [1], the Emax turned out to be 27%. The half-maximal inhibitory concentration (IC50) in data set [2] is 270 nM. Further, the Emin in data set [3] stood at 3.39%.

Turning to `C[C@H](COc1ccn(-c2ccc(F)cc2)c(=O)c1)Oc1ccccc1`, the IC50 in [17] and in data set [2] was > 30000 nM in each case.

On to `O=c1nc(OCCOc2ccccc2)ccn1-c1ccc(F)c(F)c1`, for which, in [1], the Emax came to 83%. Also, the IC50 in [2] stood at 1020 nM. In [3], the Emin was found to be 3.77%.

Regarding `O=c1cc(OCCOc2cc(Cl)ccn2)ccn1-c1ccc(F)cc1`, the Emax in [1] is 82%. Besides, the IC50 in [2] worked out at 1450 nM. In data set [3], the Emin amounted to 3.77%.

In the case of `N#Cc1cccc(-n2ccc(OCCOc3ccccc3)cc2=O)c1`, the maximal response (Emax) in data set [1] amounted to 87%. The IC50 in [2] was found to be 340 nM. In [18], the Selectivity ratio was 18. Besides, in data set [3], the Emin is 3.63%.

As to `O=c1cc(OCCOc2ncccc2Cl)ccn1-c1ccc(F)cc1`, in [1], the Emax is 94%. For the same compound, the IC50 in data set [2] is 450 nM. Besides, the Emin in data set [3] is 3.62%.

As to `O=c1cc(OCCOc2ccccc2)ccn1-c1ccc(F)c(F)c1`, in data set [1], the Emax was 91%. The IC50 in [2] came out at 180 nM. Also, the Emin in [3] was 3.53%. Moreover, the concentration for a half-maximal effect (EC50) in data set [4] is 340 nM.

With `O=c1cc(OCCOc2ccccc2)ccn1-c1ccc(F)cc1`, the Emax in data set [1] came out at 97%. For the same compound, in data set [2], the IC50 was determined as 930 nM. Also, the Emin in data set [3] is 2.69%. For the same compound, the EC50 in data set [4] came to 560 nM.

`CNC1(c2ccccc2Cl)CCCCC1=O` (stereo not drawn): in [19], the outcome was Active.

For the compound `O=c1nc(OCCOc2ccccc2)ccn1-c1ccc(F)cc1`, the figures for the IC50 in data set [17] and in [2] were > 30000 nM and 290 nM, respectively. Moreover, in data set [1], the Emax worked out at 97%. The Emin in [3] was 3.94%. The compound further showed a fraction unbound at 4 h, 5 µM in [13] of 0.16.

`O=c1cc(OCCOc2ccccc2)ccn1-c1cccc(F)c1`: the Emax in data set [1] worked out at 88%. Moreover, the IC50 in data set [2] worked out at 390 nM. Besides, in data set [3], the Emin came to 3.45%. Besides, the EC50 in [4] was found to be 1900 nM.

The record behind these values is ChEMBL document CHEMBL4130451, “Design and Synthesis of N-Aryl Phenoxyethoxy Pyridinones as Highly Selective and CNS Penetrant mGlu3 NAMs” (ACS Med Chem Lett, 2017).
